According to BindingDB's records for doi:10.1073/pnas.182234399 (Case Western Reserve University, 2002):

Experiments:
[1] = target: 5-hydroxytryptamine receptor 5A (Homo sapiens, UniProt P47898)
[2] = target: Muscarinic acetylcholine receptor M4 (Homo sapiens, UniProt P08173)
[3] = target: 5-hydroxytryptamine receptor 7 (Homo sapiens, UniProt P34969)
[4] = target: Alpha-1A adrenergic receptor (Homo sapiens, UniProt P35348)
[5] = target: Beta-2 adrenergic receptor (Rattus norvegicus, UniProt P10608)
[6] = target: Gamma-aminobutyric acid receptor subunit alpha-1 (Rattus norvegicus, UniProt P62813)
Vasopressin V1b receptor = Vasopressin V1b receptor (Homo sapiens, UniProt P47901)
[7] = target: Metabotropic glutamate receptor 1 (Homo sapiens, UniProt Q13255)
[8] = target: 5-hydroxytryptamine receptor 1B (Homo sapiens, UniProt P28222)
[9] = target: 5-hydroxytryptamine receptor 6 (Homo sapiens, UniProt P50406)
D(1A) dopamine receptor = D(1A) dopamine receptor (Homo sapiens, UniProt P21728)
[10] = target: Muscarinic acetylcholine receptor M2 (Homo sapiens, UniProt P08172)
D(4) dopamine receptor = D(4) dopamine receptor (Rattus norvegicus, UniProt P30729)
D(2) dopamine receptor = D(2) dopamine receptor (Homo sapiens, UniProt P14416)
[11] = target: Neuronal acetylcholine receptor subunit alpha-4 (Homo sapiens, UniProt P43681)
[12] = target: Neuronal acetylcholine receptor subunit alpha-4 (Rattus norvegicus, UniProt P09483)
Vasopressin V2 receptor = Vasopressin V2 receptor (Homo sapiens, UniProt P30518)
[13] = target: Metabotropic glutamate receptor 6 (Homo sapiens, UniProt O15303)
[14] = target: 5-hydroxytryptamine receptor 2A (Rattus norvegicus, UniProt P14842)
[15] = target: 5-hydroxytryptamine receptor 1A (Homo sapiens, UniProt P08908)
[16] = target: Neuronal acetylcholine receptor subunit alpha-3 (Homo sapiens, UniProt P32297)
[17] = target: 5-hydroxytryptamine receptor 3A (Homo sapiens, UniProt P46098)
[18] = target: 5-hydroxytryptamine receptor 2C (Rattus norvegicus, UniProt P08909)
[19] = target: 5-hydroxytryptamine receptor 1D (Homo sapiens, UniProt P28221)
[20] = target: Neuronal acetylcholine receptor subunit alpha-2 (Homo sapiens, UniProt Q15822)
[21] = target: Metabotropic glutamate receptor 2 (Homo sapiens, UniProt Q14416)
[22] = target: Muscarinic acetylcholine receptor M3 (Homo sapiens, UniProt P20309)
[23] = target: 5-hydroxytryptamine receptor 2B (Homo sapiens, UniProt P41595)
[24] = target: Metabotropic glutamate receptor 4 (Homo sapiens, UniProt Q14833)
Histamine H1 receptor = Histamine H1 receptor (Homo sapiens, UniProt P35367)
[25] = target: Muscarinic acetylcholine receptor M5 (Homo sapiens, UniProt P08912)
D(1B) dopamine receptor = D(1B) dopamine receptor (Homo sapiens, UniProt P21918)
D(3) dopamine receptor = D(3) dopamine receptor (Homo sapiens, UniProt P35462)
[26] = target: Beta-1 adrenergic receptor (Rattus norvegicus, UniProt P18090)
[27] = target: Glutamate receptor ionotropic, NMDA 1 (Rattus norvegicus, UniProt P35439)
[28] = target: Metabotropic glutamate receptor 8 (Homo sapiens, UniProt O00222)
[29] = target: Muscarinic acetylcholine receptor M1 (Homo sapiens, UniProt P11229)
[30] = target: Sodium-dependent dopamine transporter (Bos taurus, UniProt P27922)
[31] = target: 5-hydroxytryptamine receptor 1E (Homo sapiens, UniProt P28566)
[32] = target: Metabotropic glutamate receptor 5 (Homo sapiens, UniProt P41594)

Measured: Ki

Sequence of 5-hydroxytryptamine receptor 1B (P28222 whole entry): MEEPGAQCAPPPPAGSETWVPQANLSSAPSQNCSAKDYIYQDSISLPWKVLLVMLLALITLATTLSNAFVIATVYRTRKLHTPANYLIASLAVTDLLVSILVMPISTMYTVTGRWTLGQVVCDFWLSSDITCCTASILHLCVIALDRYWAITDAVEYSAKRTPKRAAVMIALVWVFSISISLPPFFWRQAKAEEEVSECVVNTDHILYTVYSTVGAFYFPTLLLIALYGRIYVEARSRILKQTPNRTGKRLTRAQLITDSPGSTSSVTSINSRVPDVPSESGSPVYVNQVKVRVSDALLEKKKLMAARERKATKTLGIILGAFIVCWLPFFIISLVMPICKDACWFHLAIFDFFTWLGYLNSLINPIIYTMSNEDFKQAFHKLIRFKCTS
Sequence of Neuronal acetylcholine receptor subunit alpha-4 (Rattus norvegicus, UniProt P09483) (P09483 whole entry): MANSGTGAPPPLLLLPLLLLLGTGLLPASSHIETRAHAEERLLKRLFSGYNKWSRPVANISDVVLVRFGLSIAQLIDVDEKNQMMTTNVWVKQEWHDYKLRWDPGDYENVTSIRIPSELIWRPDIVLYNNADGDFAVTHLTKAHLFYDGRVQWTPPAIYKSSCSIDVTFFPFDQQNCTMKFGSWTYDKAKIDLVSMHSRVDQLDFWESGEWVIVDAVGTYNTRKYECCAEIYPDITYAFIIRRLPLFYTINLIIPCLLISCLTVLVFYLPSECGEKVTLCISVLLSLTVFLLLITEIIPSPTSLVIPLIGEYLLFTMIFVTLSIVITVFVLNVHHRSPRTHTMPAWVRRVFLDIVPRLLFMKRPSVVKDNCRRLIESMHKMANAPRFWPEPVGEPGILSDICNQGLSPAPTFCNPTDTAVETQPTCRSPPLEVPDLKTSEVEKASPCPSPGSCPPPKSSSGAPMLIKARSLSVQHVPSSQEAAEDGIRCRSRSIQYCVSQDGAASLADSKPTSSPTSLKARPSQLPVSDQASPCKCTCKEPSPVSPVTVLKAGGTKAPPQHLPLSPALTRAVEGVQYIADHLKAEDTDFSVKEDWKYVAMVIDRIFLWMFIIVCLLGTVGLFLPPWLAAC
Sequence of Beta-1 adrenergic receptor (P18090 whole entry): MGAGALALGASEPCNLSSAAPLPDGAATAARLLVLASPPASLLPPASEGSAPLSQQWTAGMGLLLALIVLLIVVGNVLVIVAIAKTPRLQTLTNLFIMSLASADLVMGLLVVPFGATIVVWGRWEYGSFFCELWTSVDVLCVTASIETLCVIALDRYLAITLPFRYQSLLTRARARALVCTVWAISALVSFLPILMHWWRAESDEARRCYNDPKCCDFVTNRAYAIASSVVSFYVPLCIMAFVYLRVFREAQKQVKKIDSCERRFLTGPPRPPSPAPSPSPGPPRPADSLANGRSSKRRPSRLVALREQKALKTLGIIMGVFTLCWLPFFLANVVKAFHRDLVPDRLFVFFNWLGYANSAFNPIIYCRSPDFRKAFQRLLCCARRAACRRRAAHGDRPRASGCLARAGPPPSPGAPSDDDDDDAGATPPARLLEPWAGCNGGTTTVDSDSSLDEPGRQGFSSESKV
Sequence of Neuronal acetylcholine receptor subunit alpha-3 (P32297 whole entry): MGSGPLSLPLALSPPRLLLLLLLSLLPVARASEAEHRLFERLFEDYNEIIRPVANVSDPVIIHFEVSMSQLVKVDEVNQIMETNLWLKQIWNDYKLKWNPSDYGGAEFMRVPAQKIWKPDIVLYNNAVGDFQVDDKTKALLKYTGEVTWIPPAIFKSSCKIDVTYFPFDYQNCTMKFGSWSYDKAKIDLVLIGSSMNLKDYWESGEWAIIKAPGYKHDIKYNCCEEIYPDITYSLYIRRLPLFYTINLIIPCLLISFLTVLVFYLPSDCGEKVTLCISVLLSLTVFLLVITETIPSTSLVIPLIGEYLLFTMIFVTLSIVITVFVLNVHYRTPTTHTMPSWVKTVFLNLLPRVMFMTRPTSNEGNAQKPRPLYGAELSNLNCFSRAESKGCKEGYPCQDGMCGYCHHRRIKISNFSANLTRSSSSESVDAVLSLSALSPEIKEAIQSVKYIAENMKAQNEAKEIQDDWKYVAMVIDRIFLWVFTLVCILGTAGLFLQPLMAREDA
Sequence of D(1A) dopamine receptor (P21728 whole entry): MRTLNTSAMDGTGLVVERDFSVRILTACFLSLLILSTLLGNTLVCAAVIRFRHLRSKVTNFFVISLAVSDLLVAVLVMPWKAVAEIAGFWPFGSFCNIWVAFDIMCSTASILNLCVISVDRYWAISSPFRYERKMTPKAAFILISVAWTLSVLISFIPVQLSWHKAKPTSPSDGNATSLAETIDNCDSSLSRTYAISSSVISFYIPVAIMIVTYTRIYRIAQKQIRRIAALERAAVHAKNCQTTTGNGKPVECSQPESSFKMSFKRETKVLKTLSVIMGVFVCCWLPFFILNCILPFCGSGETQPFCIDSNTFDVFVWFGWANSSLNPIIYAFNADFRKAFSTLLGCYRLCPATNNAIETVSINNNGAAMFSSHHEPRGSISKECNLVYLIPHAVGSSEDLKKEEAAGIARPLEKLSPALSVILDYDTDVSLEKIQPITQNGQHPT
Sequence of Metabotropic glutamate receptor 4 (Q14833 whole entry): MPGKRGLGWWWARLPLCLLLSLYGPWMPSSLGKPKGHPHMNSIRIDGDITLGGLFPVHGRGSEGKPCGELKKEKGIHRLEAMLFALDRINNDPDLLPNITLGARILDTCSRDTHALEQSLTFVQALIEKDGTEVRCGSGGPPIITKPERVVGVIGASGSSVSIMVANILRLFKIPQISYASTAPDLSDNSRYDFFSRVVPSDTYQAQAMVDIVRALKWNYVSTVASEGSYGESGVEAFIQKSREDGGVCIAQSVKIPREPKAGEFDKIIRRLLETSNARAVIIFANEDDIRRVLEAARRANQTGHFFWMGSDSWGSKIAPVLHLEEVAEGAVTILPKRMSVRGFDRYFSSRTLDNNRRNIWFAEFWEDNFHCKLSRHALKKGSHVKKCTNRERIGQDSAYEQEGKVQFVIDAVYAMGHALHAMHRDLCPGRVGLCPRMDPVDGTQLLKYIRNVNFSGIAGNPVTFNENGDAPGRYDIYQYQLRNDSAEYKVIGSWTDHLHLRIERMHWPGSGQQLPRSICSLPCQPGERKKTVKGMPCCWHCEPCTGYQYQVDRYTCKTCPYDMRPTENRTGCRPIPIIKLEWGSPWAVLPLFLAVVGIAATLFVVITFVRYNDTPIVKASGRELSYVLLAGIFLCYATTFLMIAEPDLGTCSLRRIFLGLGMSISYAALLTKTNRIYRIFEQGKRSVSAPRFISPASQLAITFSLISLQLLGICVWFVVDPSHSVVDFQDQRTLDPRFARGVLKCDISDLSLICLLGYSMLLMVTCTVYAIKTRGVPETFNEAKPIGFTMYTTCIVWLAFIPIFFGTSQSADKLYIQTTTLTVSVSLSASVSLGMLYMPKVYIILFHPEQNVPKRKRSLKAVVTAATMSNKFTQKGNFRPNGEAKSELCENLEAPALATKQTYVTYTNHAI
Sequence of Vasopressin V2 receptor (P30518 whole entry): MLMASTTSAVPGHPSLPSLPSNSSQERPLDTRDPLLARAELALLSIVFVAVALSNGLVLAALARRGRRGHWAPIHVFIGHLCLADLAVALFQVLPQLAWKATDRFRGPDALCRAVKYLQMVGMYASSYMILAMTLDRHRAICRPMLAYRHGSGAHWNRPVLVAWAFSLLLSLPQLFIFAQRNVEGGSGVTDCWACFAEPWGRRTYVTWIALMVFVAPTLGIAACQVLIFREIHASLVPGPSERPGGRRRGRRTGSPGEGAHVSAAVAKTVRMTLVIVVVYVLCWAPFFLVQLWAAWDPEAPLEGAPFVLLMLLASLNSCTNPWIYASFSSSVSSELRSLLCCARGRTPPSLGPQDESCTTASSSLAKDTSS
Sequence of Neuronal acetylcholine receptor subunit alpha-4 (Homo sapiens, UniProt P43681) (P43681 whole entry): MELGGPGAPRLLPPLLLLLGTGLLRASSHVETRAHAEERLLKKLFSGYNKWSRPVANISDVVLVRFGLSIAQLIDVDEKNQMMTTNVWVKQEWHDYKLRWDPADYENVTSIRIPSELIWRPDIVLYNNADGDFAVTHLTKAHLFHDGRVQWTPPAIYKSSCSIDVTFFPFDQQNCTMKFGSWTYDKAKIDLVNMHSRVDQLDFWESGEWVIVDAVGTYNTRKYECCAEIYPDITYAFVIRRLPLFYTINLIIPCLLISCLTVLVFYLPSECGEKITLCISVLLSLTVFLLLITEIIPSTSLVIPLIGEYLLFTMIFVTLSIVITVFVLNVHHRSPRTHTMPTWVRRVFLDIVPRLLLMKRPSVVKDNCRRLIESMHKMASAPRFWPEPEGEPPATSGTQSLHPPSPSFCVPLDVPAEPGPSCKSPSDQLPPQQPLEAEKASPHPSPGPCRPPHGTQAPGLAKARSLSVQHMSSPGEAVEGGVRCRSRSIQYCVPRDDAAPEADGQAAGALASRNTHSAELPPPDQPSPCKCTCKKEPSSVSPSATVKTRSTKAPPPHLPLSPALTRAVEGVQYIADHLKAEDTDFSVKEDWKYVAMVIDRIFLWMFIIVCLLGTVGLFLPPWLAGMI
Sequence of Vasopressin V1b receptor (P47901 whole entry): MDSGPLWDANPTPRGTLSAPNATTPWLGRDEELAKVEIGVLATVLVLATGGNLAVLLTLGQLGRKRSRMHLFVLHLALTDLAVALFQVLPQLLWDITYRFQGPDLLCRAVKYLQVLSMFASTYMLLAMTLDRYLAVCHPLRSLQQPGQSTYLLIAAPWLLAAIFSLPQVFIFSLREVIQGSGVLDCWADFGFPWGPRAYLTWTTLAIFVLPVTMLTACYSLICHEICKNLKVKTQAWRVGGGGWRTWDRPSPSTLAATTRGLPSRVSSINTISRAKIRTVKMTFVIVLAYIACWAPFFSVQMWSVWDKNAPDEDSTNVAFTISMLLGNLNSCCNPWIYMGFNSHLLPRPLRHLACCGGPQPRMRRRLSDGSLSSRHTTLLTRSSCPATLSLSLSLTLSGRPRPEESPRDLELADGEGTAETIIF

COC(=O)[C@@H]1C[C@H](OC(C)=O)C(=O)[C@H]2[C@@]1(C)CC[C@H]1C(=O)O[C@H](c3ccoc3)C[C@]21C [2S,4aR,6a(R,7R,9S,10aS,10bR)-9-(acetyloxy)-2-(furan-3-yl)dodecahydro-6a,10b-dimethyl-4,10-dioxo-2H-naphtho[2,1-c]pyran-7-carboxylic acid methyl ester]
> 10 µM: [1] | [2] | [3] | [4] | [5] | [6] | Vasopressin V1b receptor | [7] | [8] | [9] | D(1A) dopamine receptor | [10] | D(4) dopamine receptor | D(2) dopamine receptor | [11] | [12] | Vasopressin V2 receptor | [13] | [14] | [15] | [16] | [17] | [18] | [19] | [20] | [21] | [22] | [23] | [24] | Histamine H1 receptor | [25] | D(1B) dopamine receptor | D(3) dopamine receptor | [26] | [27] | [28] | [29] | [30] | [31] | [32]
